Assay results taken from patent US9758505B2, “3-(indol-3-yl)-pyridine derivatives, pharmaceutical compositions and methods for use” (ITEOS THERAPEUTICS, priority 2014, dated 2017).

Key:
human TDO2 [1] = molecular target: T1, human TDO2 (Homo sapiens (Human), UniProt P48775); assay: Assay for TDO2 enzymatic activity determination; type: biochemical; settings: human recombinant TDO2, L-Trp 1 mM, kynurenine absorbance at 480 nm
Method: The compounds of formula I inhibit the enzymatic activity of human TDO2.
To measure the TDO2 activity, the procedure described in Dolusic et al. J. Med. Chem.; 2011, 54, […] was adapted: the reaction mixture contained (final concentrations) potassium phosphate buffer (50 mM, pH 7.5), ascorbic acid (0.25 M), methylene blue (0.125 μM), catalase (40 units/mL, from bovine liver, Sigma), and human recombinant TDO2 enzyme (prepared as described in Dolusic et al. J. Med. Chem.; 2011, 54, 5320-5334; 0.9 μg) without or with the compounds of the present invention at the indicated concentrations (total volume 112.5 μL). The reaction was initiated by the addition of 37.5 μL of L-Trp (final concentration 1 mM) at room temperature. The reaction was conducted at room temperature during one hour and stopped by the addition of 30 μL of 30% (w/v) trichloroacetic acid.
To convert N-formylkynurenine into kynurenine, the reaction mixture was incubated at 65° C. for 30 min. Then 150 μL of the reaction mixture was mixed with 120 μL of 2.5% (w/v) 4-(dimethylamino)-benzaldehyde in acetic acid and incubated for 5 min at room temperature. Kynurenine concentrations were determined by measuring the absorbance at 480 nm. A standard curve was made with pure kynurenine. The TDO activity was measured as described above using ten serial concentrations of the compounds of the present invention. Data were fitted using the Prism™ software (GraphPad Software, Inc.) using standard software configurations.

human TDO2 [2] = molecular target: T1, human TDO2; assay: Cellular assay for TDO2 activity, hTDO2-overexpressing P815 cells; type: cell-based; settings: murine mastocytoma P815 cells overexpressing hTDO2, overnight incubation, kynurenine in supernatant
Method: The compounds of Formula I inhibit the activity of human TDO2 in cells.
The assay (adapted from Pilotte L et al., Proc Natl Acad Sci USA, 2012, 109(7), 2497-502) was performed in 96-well flat bottom plates seeded with murine mastocytoma P815 cells overexpressing hTDO2 (prepared as described in Pilotte et al., PNAS, 2012, 109(7), 2497-2502), at a concentration of 5×10^4 cells/well in a final volume of 200 μL. To determine TDO or IDO activity, the cells were incubated overnight at 37° C. at 5% CO2 in IMDM (Invitrogen) supplemented with 2% FBS and 2% penicillin/streptomycin in the presence of the compounds of the present invention, at different concentrations. The cells may be obtained from the American Type Cuylture Collecion [ATCC® TIB-64™ or commercially, e.g., from Sigma-Aldrich or Life Technologies.]
(§1) The plates were then centrifuged 5 min at 1000 rpm, and 100 μL of the supernatant were collected in a conical plate, 30 uL of TCA 30% were added and a further centrifugated at 3000×g for 10 minutes. 100 μL of the supernatant were collected in a flat bottomed plate and 100 μL of 2% (w/v) 4-(dimethylamino)-benzaldehyde in acetic acid and incubated for 5 min at room temperature. Kynurenine concentrations were determined by measuring the absorbance at 480 nm. A standard curve was made with pure kynurenine. The TDO activity was measured as described above using ten serial concentrations of the compounds of the present invention. Data were fitted using the Prism™ software (GraphPad Software, Inc.) using standard software configurations.

human TDO2 [3] = molecular target: T1, human TDO2; assay: Cellular assay for TDO2 activity, A172 cells naturally expressing hTDO2; type: cell-based; settings: human glioblastoma A172 cells, overnight incubation, kynurenine in supernatant
Method: A172 is a cell line derived from human brain glioblastoma cells.
To determine TDO, the cells were incubated overnight at 37° C. at 5% CO2 in IMDM (Invitrogen) supplemented with 2% FBS and 2% penicillin/streptomycin in the presence of the compounds of the present invention, at different concentrations.
as §1

TDO2 = TDO2 (Mus musculus (Mouse), UniProt P48776); assay: Pharmacodynamic assay for TDO2 in vivo activity: increase of blood tryptophan levels in mice; settings: female BALB/c mice, 2 h
Excerpt: The compounds of the present invention increase the amount of Tryptophan in mouse blood.

Chain of TDO2 (P48776 whole entry): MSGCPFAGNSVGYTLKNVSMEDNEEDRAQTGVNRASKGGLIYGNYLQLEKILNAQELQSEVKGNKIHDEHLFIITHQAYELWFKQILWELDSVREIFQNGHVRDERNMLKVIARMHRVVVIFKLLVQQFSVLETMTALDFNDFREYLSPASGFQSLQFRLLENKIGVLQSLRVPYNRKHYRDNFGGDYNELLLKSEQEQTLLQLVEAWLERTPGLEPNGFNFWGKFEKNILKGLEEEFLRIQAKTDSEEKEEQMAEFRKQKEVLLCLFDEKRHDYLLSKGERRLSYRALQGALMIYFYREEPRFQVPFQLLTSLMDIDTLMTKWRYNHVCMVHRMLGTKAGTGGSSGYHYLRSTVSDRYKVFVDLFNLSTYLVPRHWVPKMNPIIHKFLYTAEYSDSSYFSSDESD
T1 sequence (P48775 whole entry): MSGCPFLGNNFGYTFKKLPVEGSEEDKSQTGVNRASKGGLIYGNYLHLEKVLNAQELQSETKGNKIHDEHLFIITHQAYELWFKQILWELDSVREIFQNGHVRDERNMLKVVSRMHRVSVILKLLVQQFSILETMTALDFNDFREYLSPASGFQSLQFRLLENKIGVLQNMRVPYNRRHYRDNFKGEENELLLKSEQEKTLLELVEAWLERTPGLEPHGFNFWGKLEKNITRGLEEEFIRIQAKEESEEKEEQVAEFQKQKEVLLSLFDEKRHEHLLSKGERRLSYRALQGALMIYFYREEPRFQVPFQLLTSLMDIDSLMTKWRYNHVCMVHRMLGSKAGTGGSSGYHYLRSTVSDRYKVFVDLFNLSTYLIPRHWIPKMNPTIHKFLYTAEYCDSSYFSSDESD

CC(=O)Nc1ccc(-c2c[nH]c3cc(F)ccc23)cn1 [Example 40, N-(5-(6-fluoro-1H-indol-3-yl)pyridin-2-yl)acetamide]
IC50 (human TDO2 [1]): 1000 nM
IC50 (human TDO2 [2]): 150 nM
IC50 (human TDO2 [3]): 130 nM

CNc1ccc(-c2c[nH]c3cc(F)ccc23)cn1 [Example 34, 5-(6-fluoro-1H-indol-3-yl)-N-methylpyridin-2-amine]
IC50 (human TDO2 [1]): 290 nM
IC50 (human TDO2 [2]): 240 nM
IC50 (human TDO2 [3]): 1600 nM

CS(=O)(=O)NC1CCN(c2ccc(-c3c[nH]c4cc(F)ccc34)cn2)CC1 [Example 14, N-(1-(5-(6-fluoro-1H-indol-3-yl)pyridin-2-yl)piperidin-4-yl)methanesulfonamide]
IC50 (human TDO2 [1]): 970 nM
IC50 (human TDO2 [2]): 610 nM
Tryptophan concentration in plasma (average ± standard error of the mean) (TDO2; 30 mg/kg oral gavage): 27976 ± 1196
increase of circulating Tryptophan compared to vehicle-treated controls (TDO2; 30 mg/kg oral gavage): 33%
Tryptophan concentration in plasma (average ± standard error of the mean) (TDO2; 60 mg/kg oral gavage): 33862 ± 1529
increase of circulating Tryptophan compared to vehicle-treated controls (TDO2; 60 mg/kg oral gavage): 61%
Tryptophan concentration in plasma (average ± standard error of the mean) (TDO2; 100 mg/kg oral gavage): 35716 ± 1663
increase of circulating Tryptophan compared to vehicle-treated controls (TDO2; 100 mg/kg oral gavage): 70%
IC50 (human TDO2 [3]): 1800 nM

Fc1ccc2c(-c3cccnc3)c[nH]c2c1 [Example 44, 6-fluoro-3-(pyridin-3-yl)-1H-indole]
IC50 (human TDO2 [1]): 850 nM
IC50 (human TDO2 [2]): 68 nM
IC50 (human TDO2 [3]): 600 nM

CS(=O)(=O)CCNc1ccc(-c2c[nH]c3cc(F)ccc23)cn1 [Example 28, 5-(6-fluoro-1H-indol-3-yl)-N-(2-(methylsulfonyl)ethyl)pyridin-2-amine]
IC50 (human TDO2 [1]): 1500 nM
IC50 (human TDO2 [2]): 1000 nM

CS(=O)(=O)NCCCNc1ccc(-c2c[nH]c3cc(F)ccc23)cn1 [Example 21, N-(3-(5-(6-fluoro-1H-indol-3-yl)pyridin-2-ylamino)propyl)methanesulfonamide]
IC50 (human TDO2 [1]): 620 nM
IC50 (human TDO2 [2]): 350 nM

CS(=O)(=O)CCCNc1ccc(-c2c[nH]c3cc(F)ccc23)cn1 [Example 22, 5-(6-fluoro-1H-indol-3-yl)-N-(3-(methylsulfonyl)propyl)pyridin-2-amine]
IC50 (human TDO2 [1]): 1200 nM
IC50 (human TDO2 [2]): 400 nM

OCCNc1ccc(-c2c[nH]c3cc(F)ccc23)cn1 [Example 27, 2-(5-(6-fluoro-1H-indol-3-yl)pyridin-2-ylamino)ethanol]
IC50 (human TDO2 [1]): 490 nM
IC50 (human TDO2 [2]): 190 nM

CN(C)CCOc1ccc(-c2c[nH]c3cc(F)ccc23)cn1 [Example 4, 2-(5-(6-fluoro-1H-indol-3-yl)pyridin-2-yloxy)-N,N-dimethylethanamine]
IC50 (human TDO2 [1]): 39000 nM
IC50 (human TDO2 [2]): 680 nM

Cc1cncc(-c2c[nH]c3cc(F)ccc23)c1 [Example 48, 6-fluoro-3-(5-methylpyridin-3-yl)-1H-indole]
IC50 (human TDO2 [1]): 4500 nM
IC50 (human TDO2 [2]): 620 nM

Fc1cc2[nH]cc(-c3cccnc3)c2cc1F [Example 47, 5,6-difluoro-3-(pyridin-3-yl)-1H-indole]
IC50 (human TDO2 [1]): 2800 nM
IC50 (human TDO2 [2]): 240 nM

NCC(=O)NC1CCN(c2ccc(-c3c[nH]c4cc(F)ccc34)cn2)CC1 [Example 13, 2-amino-N-(1-(5-(6-fluoro-1H-indol-3-yl)pyridin-2-yl)piperidin-4-yl)acetamide]
IC50 (human TDO2 [1]): 1700 nM
IC50 (human TDO2 [2]): 550 nM

CN(C)c1ccc(-c2c[nH]c3cc(F)ccc23)cn1 [Example 7, 5-(6-fluoro-1H-indol-3-yl)-N,N-dimethylpyridin-2-amine]
IC50 (human TDO2 [1]): 380 nM
IC50 (human TDO2 [2]): 320 nM

Fc1ccc2c(-c3ccc(N4CCOCC4)nc3)c[nH]c2c1 [Example 9, 4-(5-(6-fluoro-1H-indol-3-yl)pyridin-2-yl)morpholine]
IC50 (human TDO2 [1]): 540 nM
IC50 (human TDO2 [2]): 210 nM

NC(=O)CNc1ccc(-c2c[nH]c3cc(F)ccc23)cn1 [Example 31, 2-(5-(6-fluoro-1H-indol-3-yl)pyridin-2-ylamino)acetamide]
IC50 (human TDO2 [1]): 790 nM
IC50 (human TDO2 [2]): 120 nM
